Measured values reported in US8618023B2, “Microbiocides” (Syngenta Crop Protection, LLC, priority 2006, dated 2013).

melting point [°C] | SMILES
204 to 206 | O=C(N[C@@H]1C[C@]1(F)c1ccc(Cl)cc1)c1ccccc1C(F)(F)F [Compound 6.004, N-[(1R,2S)-2-(4-chlorophenyl)-2-fluoro-cyclopropyl]-2-trifluoromethyl-benzamide]
127 | Cn1cc(C(=O)NC2CC2c2ccc(Cl)cc2)c(C(F)F)n1 (centres unmarked) [Compound 1.001, 3-difluoromethyl-1-methyl-1H-pyrazole-4-carboxylic acid [2-(4-chlorophenyl)-cyclopropyl]-amide]
